Test results taken from a melting point compilation (Tetko et al.; mined from patent text by program, amines drawn as free bases though some values may be those of a salt).

Compound | melting point [°C]
Cc1cc(-n2ccnc2)c2cccc(OCc3c(Cl)ccc(S(=O)(=O)N4CCC[C@H]4C(=O)NCC4CCN(CCCO)CC4)c3Cl)c2n1 | 90
CCCC(CCC)C(=O)O[C@H]1C[C@H](O)C=C2C=C[C@H](C)[C@H](CC[C@@H]3C[C@@H](O)CC(=O)O3)[C@H]21 | 165 to 166
FC(F)(F)c1ccc(Oc2ccc3nnsc3c2)c(Cl)c1 | 72 to 73
CNS(=O)(=O)C1CN(C)c2cc(F)ccc2C1=O (stereo not drawn) | 134 to 136
COc1ccc(CNc2nc(N)nc3c2ncn3C2CC(F)C(CO)O2)cc1 (stereo not drawn) | 194 to 195
CCc1c(C(=O)C(N)=O)c2c(OCC(=O)O)cc3c(c2n1Cc1ccccc1)CCCC3 | 222 to 225
C[C@@H](c1nc(-c2ccc(C#N)cc2)cs1)[C@](O)(Cn1cncn1)c1ccc(F)cc1F | 164 to 166
CCOC(=O)C1=C(COCc2nnn(CCN3CCN(C(=O)NC)CC3)n2)NC(C)=C(C(=O)OC)C1c1cccc(Cl)c1Cl (stereo not drawn) | 112 to 114
O=C(Nc1cc(Cl)cc(Cl)c1)c1cc(I)ccc1O | 244 to 245
N#CC(Cc1cccc2c1OCO2)C(=O)O (stereo not drawn) | 118
CCc1cc(C(F)(C(F)(F)F)C(F)(F)F)cc(C)c1NC(=O)c1cccc(N=S=O)c1 | 100 to 108
O=c1oc(-c2ccccc2)cc(O)c1SCc1cccc(OCCc2ccccc2)c1 | 85 to 90
COc1ccc(CN2C(=O)[C@@H](N3C(=O)c4ccccc4C3=O)[C@H]2CCc2ccccc2)c(OC)c1 (relative stereo) | 148 to 150
COC(=N)CCSCc1csc(N=C(N)N)n1 | 126
O=CN1CCn2nccc21 | 78 to 80
CCN(CC)C(=O)Nc1ccc2oc3c(c2c1)CCCC3 | 179 to 180
CCCNCCC1Cc2ccc(-c3ccc(=O)[nH]n3)cc2C1 (stereo not drawn) | 150 to 151
O=[N+]([O-])c1ccc2[nH]c(C(F)(F)F)c([N+](=O)[O-])c2c1 | 225 to 228
CC(=O)Nc1cnn2cnc3ccccc3c12 | 256 to 258
Cn1c(=O)c(=O)[nH]c2cccnc21 | 238 to 239
COc1ccccc1Sc1c(Cl)ncnc1Cl | 103
CS(=O)(=O)c1ccc(-c2nc(C(F)(F)F)nc(NN)c2-c2ccccc2)cc1 | 272 to 275
ClCCCOc1ccc2ccccc2c1 | 46 to 49
O=C(NC(c1ccccc1)c1ccccc1)[C@H]1Cc2c([nH]c3ccccc23)CN1 | 191 to 196
CCCCc1nc2c(O)ccc(CCN(C)C)c2[nH]1 | 97 to 105

Compound | melting point [°C]
Cc1cnc(Br)c(F)c1 | 32 to 33
CCCNC(=O)c1cnc2cccc(C)n2c1=O | 158 to 160
Cc1noc(NS(=O)(=O)c2ccccc2-c2ccc(-c3ncco3)cc2CC#N)c1C | 103 to 110
COC(=O)C(=C/c1cc(OC)c(OC)c(OC)c1)/C(C(N)=O)=C(/C)c1ccccc1 | 141 to 143
Cc1cc(C(=NO)c2cccs2)cc(C)c1OCC(=O)O | 152
CCOCc1nc2c(c(C)c(C)n3nnnc23)n1CCNC(=O)OC(C)(C)C | 197 to 199
CSC1=N/C(=C\c2c[nH]c3ncc(Cl)cc23)C(=O)N1 | > 410
CCCCCCCCc1cc(C=O)co1 | 25
COc1ccccc1N1CCN(CCCNC(=O)c2cccc3c(=O)c(C)c(-c4cccc([N+](=O)[O-])c4)oc23)CC1 | 135 to 137
O=C1COc2ccc(C3=Nc4ccccc4SC3c3ccccn3)cc2N1 (stereo not drawn) | 168 to 170
COc1ccccc1NC(=O)Nc1nc(Nc2ccccc2-c2ccccc2)nc(N(CCC(=O)O)Cc2cccc(F)c2)n1 | 115 to 128
COc1cc(Nc2c(C#N)cnc3c2sc2ccc([N+](=O)[O-])cc23)c(C)cc1Cl | > 305
CCNC(=O)c1sc(N2CCN(Cc3ccc(OC(F)(F)F)cc3)C2=O)nc1C | 139 to 140
Cn1c(=O)c2c(nc3n(Cc4ccccc4)c(=O)cc(O)n23)n(C)c1=O | 206 to 209
COC(=O)CCN(C(=O)CC(O)C(=O)O)N1CCCCC1 (stereo not drawn) | 54 to 57
C=CCc1cc2c(c(CC=C)c1O)CCC(=O)N2CCCn1cnnc1 | 129 to 132
CCCC(=O)C1c2cccc(O)c2C(=O)c2c(O)cccc21 | 138
CC(C)Nc1ncnc2c1ncn2Cc1c(Cl)cccc1Cl | 109 to 110
COc1cc(OC)nc(Oc2ccc3ncccc3c2C(=O)O)n1 | 195 to 198
N[C@@H](CC(=O)N1CCn2c(nnc2C(F)(F)F)C1)Cc1cc(F)c(F)cc1F | 118
CC(=O)Nc1nc2c(Oc3cc(-c4ccc(C(F)(F)F)cc4)c(-c4ccc(F)cc4)cn3)cccc2s1 | 112 to 130
CC1CCc2ccc(OCC(O)CNC3CCCCC3)cc2O1 (stereo not drawn) | 97 to 99
Nc1nnc(C(CCc2ccccc2)NC(=O)c2ccc3[nH]c(-c4ccncc4)nc3c2)o1 (stereo not drawn) | 160
COc1ccc(N2CCN(c3ccc(OC)nc3-c3ccc(OC)cc3CO)CC2)cc1 | 163 to 165
CCCCCC(C)C(C)c1cc(O)c2c(c1)OC(C)(C)C1=C2CN(CC(=O)NC)CC1 (stereo not drawn) | 131 to 134

Compound | melting point [°C]
O=C1CCC(CCO)N1 (stereo not drawn) | 52 to 52.5
N=C(N)Nc1nc(CSCCNC2=NS(=O)(=O)N=C2N)cs1 | 134 to 149
Nc1ccc(C(=O)N2CCN(NC(=O)c3ccc(F)cc3)CC2)cc1 | 209
Cc1noc(=O)c2ccc(NC(=O)C(=O)CC3(c4ccccc4)CC3)cc12 | 155 to 156
CCn1cnc2c(Nc3cccc(C(=O)OC)c3)nc(Cl)nc21 | 148
CC(C)(C)c1nc2cc(N3CCNCC3)c([N+](=O)[O-])cc2s1 | 144 to 146
Cc1cc(-n2cncn2)c2cccc(OCc3c(Cl)ccc(S(=O)(=O)N4CCC[C@H]4C(=O)NCC4CCN(Cc5ccccn5)CC4)c3Cl)c2n1 | 118
COc1nc2ccc(Br)cc2c2c1C(C)(O)c1ccccc1-2 (stereo not drawn) | 159 to 160
CC1(C2C(=O)N(CC(F)(F)F)c3ccccc32)OCCO1 (stereo not drawn) | 87 to 89
O=C(NCCc1c[nH]c2ccccc12)c1cccnc1 | 150 to 152
Cc1cc(=O)oc2cc(N(C)C(=O)C(=O)O)ccc12 | 162 to 164
CC(C)(C)OC(=O)NN(Cc1cc(F)cc(F)c1)C(N)=O | 129 to 130
CC(C(=O)NCC(COC(=O)C(C)(C)C)Cc1ccc(C(C)(C)C)cc1)c1ccc(NS(C)(=O)=O)c(Cl)c1 (stereo not drawn) | 61 to 63
C#CC(C)Oc1cc(-c2nn3c(c2Cl)CCCC3)c(F)cc1Cl (stereo not drawn) | 116 to 120
N#Cc1ccc2nc(-c3ccc(Br)o3)cn2c1 | 212 to 214
O=C(c1ccccc1)N1CCNc2ncccc21 | 166 to 168
Cc1cccc2nc3c(c(N)c12)CCCC3 | 143 to 145
COC(=O)n1c(Cl)nc2c(C)cccc21 | 90 to 91
COc1ccc(CC(=O)NC(NC(=NC#N)Nc2cc(Cl)ccc2F)C(C)(C)C)cc1OC (stereo not drawn) | 187 to 188
COC(=O)c1cc(-n2cnnc2)c(C(F)(F)F)cc1N | 184 to 186
CC1(CCC(=O)CCCc2cccc([N+](=O)[O-])c2)C(=O)CCC1=O | 81 to 83
COC(=O)CNC(=O)[C@H](NC(=O)OCC1c2ccccc2-c2ccccc21)C(C)C | 148 to 150
O=C1Nc2ccc(NC(=O)C(=O)N3CCC(Cc4ccc(F)cc4)CC3)cc2C1=O | 205 to 206
O=C(c1ccnc(Cl)c1)N1CC(c2ccc(F)cc2)C2(CCN(C/C=C/c3ccc(Cl)cc3)CC2)C1 (stereo not drawn) | 79 to 81
CCCC1(OCCO)CCNCC1 | 72

Compound | melting point [°C]
CCOC(=O)[C@H](CCc1ccccc1)N[C@@H](C)C(=O)N1C(=O)N(Cc2ccccc2)C[C@H]1C(=O)O | 56 to 57
Cc1cc(SC(C)C)c(NC(=O)CCCCSc2nc3ccccc3o2)c(SC(C)C)n1 | 129 to 130
Cc1cc2c(c([N+](=O)[O-])c1)N(c1ccccc1C#N)CC2 | 138 to 139
Cc1cc(Oc2ncc(C(F)(F)F)cc2Cl)nn1C(=O)NCC(C)C | 45 to 47
COc1c(N2CC[C@@H](C(C)(C)NC(=O)OC(C)(C)C)C2)c(F)cc2c(=O)c(C(=O)O)cn(C3CC3)c12 | 70 to 72
CC(=O)N(C(C)=O)c1csc(Br)n1 | 63 to 65
CCOC(=O)c1nnc2n1-c1sc(Cl)cc1C(c1ccccc1[N+](=O)[O-])=NC2 | 143 to 145
Cc1cnc2c(c1)CCCC2NC(N)=S (stereo not drawn) | 114
O=C(O)CC(CNC(=O)C1Cc2ccccc2N1S(=O)(=O)c1ccc(-c2cccc(C(F)(F)F)c2)cc1)c1ccccc1 (stereo not drawn) | 90
CCOC(=O)CC(=O)CSc1nc2cc(Cl)c(F)cc2c(O)c1C(=O)OCC | 167 to 170
Cc1cc2c(s1)C(C(=O)O)CC2 (stereo not drawn) | 105 to 107
CN(C)c1c(-c2ccc(-c3ccccc3)cc2)nc2ccc(F)cc2c1C(=O)O | 235 to 239
CC(CC(F)(F)F)C(=O)Nc1cnn(-c2cccnc2)c1 (stereo not drawn) | 140 to 145
O=C(O)C1Cc2c(cccc2-c2ccccc2)CN1C(=O)C(c1ccccc1)c1ccccc1 (stereo not drawn) | 216 to 221
NC(=O)c1ccc(-c2cccc3cc(COc4cccc(C(F)(F)F)c4)sc23)cc1 | 191 to 192
CC(=O)c1cc(I)cc(S(N)(=O)=O)c1 | 188 to 189
Cc1c(NC(=O)c2cc3c(s2)C2CCC3C2)cccc1-c1cn(C)c(=O)c(Nc2ccc(C3C(=O)N(C)CCN3C)cc2)n1 (stereo not drawn) | 178 to 179
COC(=O)C1=C(C)NC(C)=C(C(=O)OCCC#N)C1c1cccc2c(=O)c(C)c(-c3ccccc3)oc12 (stereo not drawn) | 190 to 192
COc1cc(C(=O)N(C)OC)c2oc(-c3ccc(OC)c(F)c3)cc2c1 | 100 to 102
CC(C)OC(=O)C(=C1SCCS1)c1ccc(F)cc1 | 106 to 107
CSC(=S)N/N=C/c1ccc(-c2ncn(-c3ccc(OC(F)(F)F)cc3)n2)cc1 | 204 to 206
CS(=O)(=O)c1ccc(-c2cnn(CC(=O)c3ccccc3)c(=O)c2-c2ccc(F)cc2)cc1 | 228 to 230
CC(=O)NCc1ccc(CN2CCN(c3ccc([N+](=O)[O-])cc3)CC2)cc1 | 152 to 154
